Experimental data as given in patent US10597388B2, “Pyridazinone herbicides” (FMC CORPORATION, priority 2014, dated 2020).

Key:
Format in all cases: in vivo
[1] = tested on: blackgrass (Alopecurus myosuroides); assay: Test A greenhouse herbicide test, postemergence; settings: for Plant response rating, Blackgrass: 125 g ai/ha, 0 to 100 scale where 0 is no effect and 100 is complete control; for Blackgrass plant response rating: 500 g ai/ha, 0 to 100 scale, 0 is no effect, 100 is complete control
Summary of the method: (§1)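 Pot-grown plants (loam soil/sand blend), 2–10 cm tall at the one- to two-leaf stage, received postemergence sprays of formulated test chemical. After about 10 d in the greenhouse, injury was rated visually against untreated controls on a 0 (no effect) to 100 (complete control) scale.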

[2] = tested on: galium (catchweed bedstraw, Galium aparine); assay: Test A greenhouse herbicide test, postemergence; settings: for Galium plant response rating: 0 to 100 scale, 0 is no effect, 100 is complete control
Summary of the method: as §1

[3] = tested on: oat, wild (wild oat, Avena fatua); assay: Test C greenhouse herbicide test, postemergence
Description: (§2) At the same time, plants selected from these crop and weed species and also chickweed (common chickweed, Stellaria media), kochia (Kochia scoparia), and oat, wild (wild oat, Avena fatua), were planted in pots containing Redi-Earth® planting medium (Scotts Company, 14111 Scottslawn Road, Marysville, Ohio 43041) comprising spaghnum peat moss, vermiculite, wetting agent and starter nutrients and treated with postemergence applications of test chemicals formulated in the same manner. Plants ranged in height from 2 to 18 cm (1- to 4-leaf stage) for postemergence treatments. Treated plants and controls were maintained in a greenhouse for 13 to 15 d, after which time all species were compared to controls and visually evaluated. Plant response ratings, summarized in Table C, are based on a scale of 0 to 100 where 0 is no effect and 100 is complete control. A dash (-) response means no test result.

kochia (Kochia scoparia) = assay: Test C greenhouse herbicide test, postemergence
Description: as §2

[4] = tested on: chickweed (common chickweed, Stellaria media); assay: Test C greenhouse herbicide test, postemergence
Description: as §2

[5] = tested on: barnyardgrass (Echinochloa crus-galli); assay: Test A greenhouse herbicide test, pre- and postemergence
Summary of the method: (§3)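 Seeds in loam–sand blend received a preemergence directed soil spray; plants at 2–10 cm, one- to two-leaf stage, received postemergence sprays. Compounds in a non-phytotoxic solvent with surfactant. After about 10 d in a greenhouse, injury rated visually versus untreated controls on a 0–100 scale (100 = complete control).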

[6] = tested on: ryegrass, Italian (Italian ryegrass, Lolium multiflorum); assay: as above
Summary of the method: as §3

corn (Zea mays) = assay: as above; settings: Postemergence; for Corn plant response rating: 0 to 100 scale, 0 is no effect, 100 is complete control
Summary of the method: as §3

[7] = 125 g ai/ha, 0 to 100 scale where 0 is no effect and 100 is complete control
[8] = Postemergence, 31 g ai/ha, 0 to 100 scale (0 no effect, 100 complete control)
[9] = Postemergence, 125 g ai/ha, scale 0 to 100, 0 is no effect, 100 is complete control
[10] = Postemergence, 250 g ai/ha, scale 0 to 100, 0 no effect, 100 complete control, 13 to 15 d
[11] = postemergence, 62 g ai/ha, scale 0 to 100, 0 no effect, 100 complete control
[12] = Postemergence, 125 g ai/ha, 0 to 100 scale where 0 is no effect and 100 is complete control
[13] = Postemergence, 500 g ai/ha, 0 to 100 scale, 0 is no effect, 100 is complete control
[14] = Preemergence, 125 g ai/ha, 0 to 100 scale where 0 is no effect and 100 is complete control
[15] = Preemergence, 500 g ai/ha, 0 to 100 scale, 0 no effect, 100 complete control
[16] = Preemergence, 500 g ai/ha, 0 to 100 scale where 0 is no effect and 100 is complete control
[17] = 500 g ai/ha, visual rating after approx. 10 d, 0 to 100 scale (0 no effect, 100 complete control)
[18] = Postemergence, 500 g ai/ha, visual rating after approx. 10 d, 0 to 100 scale (0 no effect, 100 complete control)
[19] = Postemergence, 31 g ai/ha, scale 0 to 100 (0 no effect, 100 complete control)

SMILES | Plant response rating, Blackgrass [1] | Blackgrass plant response rating [1] | Plant response rating, Galium [2, 7] | Plant response rating, Oat, Wild [3, 9] | Plant response rating, Oat, Wild [3, 10] | Plant response rating, Kochia (kochia (Kochia scoparia); [9]) | Plant response rating, Kochia (kochia (Kochia scoparia); [10]) | Plant response rating, Chickweed [4, 9] | Plant response rating, Chickweed [4, 10] | Chickweed plant response rating [4, 11] | Plant response rating, Barnyardgrass [5, 12] | Barnyardgrass plant response rating [5, 13] | Barnyardgrass plant response rating [5, 14] | Plant response rating, Ryegrass, Italian [6, 12] | Ryegrass, Italian plant response rating [6, 14] | Plant response rating, Ryegrass, Italian [6, 16] | Plant response rating, Corn (corn (Zea mays); [7]) | Plant response rating, Galium [2, 17] | Plant response rating, Barnyardgrass [5, 16] | Plant response rating, Ryegrass, Italian [6, 18] | also measured
CCC(=O)Oc1c(C)nn(C)c(=O)c1-c1c(C)ccc2ccccc12 [Compound 78] | 30 | 80 | 80 | 60 | 60 | 85 | 90 | 70 | 80 | 60 | 20 | 30 | 0 | 80 | 100 | 100 | 0 |  |  |  | Galium plant response rating ([2]; 500 g ai/ha): 100; Oat, Wild plant response rating [3, 8]: 35; Oat, Wild plant response rating [3, 11]: 50; Kochia plant response rating (kochia (Kochia scoparia); [8]): 45; Kochia plant response rating (kochia (Kochia scoparia); [11]): 70; Chickweed plant response rating [4, 8]: 30; Plant response rating, Barnyardgrass [5, 15]: 70; Ryegrass, Italian plant response rating [6, 13]: 100; Corn plant response rating (corn (Zea mays); 500 g ai/ha): 0
COC(=O)Oc1c(C)nn(C)c(=O)c1-c1c(C)sc2ccc(C)cc12 [Compound 80] | 80 | 80 | 90 | 90 | 95 | 90 | 90 | 95 | 98 | 95 | 70 | 80 | 70 | 80 | 90 | 100 | 0 |  |  |  | Galium plant response rating ([2]; 500 g ai/ha): 90; Oat, Wild plant response rating [3, 8]: 90; Oat, Wild plant response rating [3, 11]: 90; Kochia plant response rating (kochia (Kochia scoparia); [8]): 90; Kochia plant response rating (kochia (Kochia scoparia); [11]): 90; Chickweed plant response rating [4, 8]: 90; Plant response rating, Barnyardgrass [5, 15]: 90; Ryegrass, Italian plant response rating [6, 13]: 90; Corn plant response rating (corn (Zea mays); 500 g ai/ha): 0
COC(=O)Oc1cnn(C)c(=O)c1-c1c(C)sc2ccccc12 [Compound 97] | 90 | 90 | 100 | 5 | 10 | 70 | 85 | 15 | 60 | 0 | 30 | 90 | 20 | 100 | 100 | 100 | 10 | 100 | 100 | 100 | Oat, Wild plant response rating [3, 11]: 5; Kochia plant response rating (kochia (Kochia scoparia); [11]): 0; Chickweed plant response rating [4, 8]: 0; Plant response rating, Corn (corn (Zea mays); [17]): 70
CCCC(=O)Oc1c(C)nn(C)c(=O)c1-c1c(C)sc2ccc(C)cc12 [Compound 105] | 80 | 90 | 100 | 90 | 90 | 95 | 100 | 98 | 100 | 95 | 50 | 90 | 20 | 100 | 100 | 100 | 0 | 100 | 100 | 100 | Plant response rating, Oat, Wild [3, 19]: 60; Plant response rating, Kochia (kochia (Kochia scoparia); [19]): 95; Plant response rating, Chickweed [4, 19]: 90; Plant response rating, Corn (corn (Zea mays); [17]): 30
CCCC(=O)Oc1c(C)nn(C)c(=O)c1-c1c(CC)sc2ccc(C)cc12 [Compound 107] | 80 | 90 | 100 | 40 | 35 | 90 | 90 | 95 | 98 | 90 | 60 | 100 | 70 | 60 | 80 | 100 | 0 | 100 | 100 | 90 | Plant response rating, Oat, Wild [3, 19]: 20; Plant response rating, Kochia (kochia (Kochia scoparia); [19]): 70; Plant response rating, Chickweed [4, 19]: 90; Plant response rating, Corn (corn (Zea mays); [17]): 30
CC(=O)Oc1c(C)nn(C)c(=O)c1-c1c(C)sc2ccc(Cl)cc12 [Compound 108] | 80 | 90 | 100 | 90 | 90 | 95 | 100 | 95 | 98 | 90 | 30 | 90 | 20 | 100 | 100 | 100 | 0 | 100 | 100 | 100 | Plant response rating, Oat, Wild [3, 19]: 80; Plant response rating, Kochia (kochia (Kochia scoparia); [19]): 90; Plant response rating, Chickweed [4, 19]: 90; Plant response rating, Corn (corn (Zea mays); [17]): 0
